Data reported in patent US20090062338A1, “[…] USE IN TREATING OR PREVENTING CARDIOVASCULAR DISEASE” (priority 2005, published 2009).

How the values were obtained:
hepatocyte growth factor [1] = assay: Gene expression in cardiac tissue of mice fed Tempol, chip-based microarray; type: in vivo; settings: 5 mg/g of food from 14 to 31 months of age
Experimental: To assess the effects of Tempol on gene expression, Tempol was administered to experimental mice at a dose of 5 mg/g of food from 14 months to 31 months after birth. Mice receiving the same food without the addition of Tempol were used as a negative control. At the age of 31 months, the experimental animals were sacrificed and the hearts were surgically removed. The expression of a broad spectrum of genes in the cardiac tissue was assessed using chip-based microarray technology. Such chips are well known in the art and are widely used to assess gene expression.

adiponectin = assay: Protein level in patient after Tempol treatment; type: in vivo, human; settings: 1500 mg per day for 180 days
Experimental: (§1) A 70-kilogram patient three days post myocardial infarction is administered a dose of 1500 mg of Tempol per day for 180 days. This may be administered in a single dose, or may be administered as a number of smaller doses over a 24-hour period: for example, three 500-mg doses at eight-hour intervals. Following treatment, the protein level of hepatocyte growth factor and adiponectin in the plasma is increased, and the protein level of caspase 3 is decreased.
as §1, with “at risk for” for “three days post”

caspase 3 [2] = assay: Protein level in patient after Tempol treatment; type: in vivo, human; settings: 1500 mg per day for 180 days
Experimental: as §1
as §1, with “at risk for” for “three days post”

hepatocyte growth factor [3] = assay: Protein level in patient after Tempol treatment; type: in vivo, human; settings: 1500 mg per day for 180 days
Experimental: as §1
as §1, with “at risk for” for “three days post”

[4] = test system: Adiponectin, C1Q and collagen domain containing; assay: Gene expression in adipose tissue of mice fed Tempol, Affymetrix MOE430A 2.0 array; type: in vivo; settings: 5 g/kg of diet from 12 through 15 months
Experimental: (§2) In a further gene expression study, Tempol was administered to experimental mice at a dose of 5 g/kg of diet from 12 months through 15 months. Mice receiving the same diet without the addition of Tempol were used as a negative control. At the age of 15 months, the adipose tissue of the experimental animals was obtained. The expression of a broad spectrum of genes in the adipose tissue was assessed using chip-based microarray technology. Specifically, in this case an Affymetrix MOE430A 2.0 array, containing 12,960 genes, was employed. Such chips are well known in the art and are widely used to assess gene expression.

Caspase 3 [5] = assay: as above; type: in vivo; settings: 5 g/kg of diet from 12 through 15 months
Experimental: as §2

endothelium = settings: angiotensin II infused rats, introduction of Tempol; cited from earlier work
[6] = Example 1: 70-kg patient three days post myocardial infarction
[7] = Example 2: 70-kg patient at risk for myocardial infarction

CC1(C)CC(O)CC(C)(C)N1[O] [Tempol, 4-hydroxy-2,2,6,6-tetramethylpiperidine-1-oxyl]
HGF expression, fold change (increase) vs control mice (hepatocyte growth factor [1]): 3.2 fold | HGF (ORF W12681) expression, TEMPOL-treated mouse tp51 (hepatocyte growth factor [1]; microarray signal): 152 | HGF (ORF W12681) expression, TEMPOL-treated mouse tp52 (hepatocyte growth factor [1]; microarray signal): 151 | HGF (ORF W12681) expression, TEMPOL-treated mouse tp53 (hepatocyte growth factor [1]; microarray signal): 207 | Protein level of adiponectin in the plasma (adiponectin; [6]): increased | Protein level of adiponectin in the plasma (adiponectin; [7]): increased | Protein level of caspase 3 (caspase 3 [2]; [6]): decreased | Protein level of caspase 3 (caspase 3 [2]; [7]): decreased | Protein level of hepatocyte growth factor in the plasma (hepatocyte growth factor [3]; [6]): increased | Protein level of hepatocyte growth factor in the plasma (hepatocyte growth factor [3]; [7]): increased | Adiponectin expression, fold change (increase) vs control mice [4]: 1.22 fold | Adiponectin expression, mean (Tempol-treated mice) ([4]; microarray signal): 33876 | Caspase 3 expression, mean (Tempol-treated mice) (Caspase 3 [5]; microarray signal): 414 | Caspase 3 expression, fold change vs control mice (signed) (Caspase 3 [5]; negative = decrease): −1.47 fold | Caspase 3 expression, fold decrease vs control mice (Caspase 3 [5]; stated as decreased): 1.47 fold | Deleterious effects of angiotensin II on the endothelium (endothelium): ameliorated
